Patent US4173539A, “Cationic surfactant compositions” (Lever Brothers Company, priority 1977, dated 1979)
“And” between values parts separate entries of the source, which are not always exact repeats. Equal values may be shown once.

Legend:
[1] = Krafft point (Kp) determination; assay type: physicochemical; conditions: aqueous dispersion containing 2% by weight, temperature at which it becomes cloudy on cooling
Method: A composition of uniform turbidity can be recognised simply by visual observation of a sample which has been placed in a test tube and allowed to stand for 24 hours at ambient temperature. […] The melting point of particles of softening agent can be determined by placing in a hot stage microscope a sample of composition on a glass slide covered by a glass cover slip and observing the temperature at which melting of the particle occurs as a change in shape of the particles indicating deformation of liquid droplets when the cover slip is moved over the slide. The Krafft point (Kp) of the quaternary ammonium chloride can be determined by heating an aqueous dispersion containing 2% by weight of it to a temperature at which a transparent solution is obtained, cooling it, and observing the temperature at which it becomes cloudy. The clear point of the composition can be determined by heating a sample to 95° C.: lack of optical clarity at this temperature is taken as showing that the clear point is above 95° C.

[2] = Effective normality ratio range of quaternary ammonium salt to anionic surfactant for stable dispersions; assay type: physicochemical
From the text: The ranges of figures in the table are the ranges of normality ratios expressed as quaternary ammonium salt to 1 of anionic surfactant.
There is no specific disclosure of the preparation of aqueous liquid concentrates in these prior publications of stable dispersions containing positively charged particles of quaternary ammonium softeners with single long-chain groups, and to prepare these it is necessary both to select a normality ratio within the operative range for the particular quaternary ammonium salt and anionic surfactant concerned and to employ a method of formulation which gives a homogeneous liquid phase before generating the complex-containing softener particles.

Row | Krafft point (Kp) [1] | effective normality ratio range, quaternary ammonium salt to 1 of anionic surfactant ([2]; anionic surfactant: Sodium stearate) | Krafft point (Kp) ([1]; listed as behenoyl-hydroxypropyltrimethylammonium chloride of Preparation I) [°C] | Structure (SMILES) | effective normality ratio range, quaternary ammonium salt to 1 of anionic surfactant ([2]; anionic surfactant: Sodium C15-C18 olefin sulphonate) | effective normality ratio range, quaternary ammonium salt to 1 of anionic surfactant ([2]; anionic surfactant: Sodium linear C10-C15 alkylbenzene sulphonate) | effective normality ratio range, quaternary ammonium salt to 1 of anionic surfactant ([2]; anionic surfactant: Sodium random secondary C13-C17 alkane sulphonate) | effective normality ratio range, quaternary ammonium salt to 1 of anionic surfactant ([2]; anionic surfactant: Sodium soap of tallow fatty acids)
1 | 60 °C |  |  | CCCCCCCCCCCCCCCCCCCCCC(=O)NCCC[N+](C)(C)C.[Cl-] [behenoylaminopropyl trimethylammonium chloride] |  |  |  | 
2 | 54 °C and 58 °C | 1.2-3.0 | 58 | CCCCCCCCCCCCCCCCCCCCCC(=O)OCC(O)C[N+](C)(C)C.[Cl-] (stereo not shown) [3-behenoyloxy-2-hydroxypropyl trimethylammonium chloride] |  |  |  | 
3 | 16 °C |  |  | CCCCCCCCCCCCCCCC[N+](C)(C)Cc1ccccc1.[Cl-] [cetylbenzyldimethylammonium chloride] |  |  |  | 

Row | Structure (SMILES) | Krafft point (Kp) [1] | effective normality ratio range, quaternary ammonium salt to 1 of anionic surfactant ([2]; anionic surfactant: Sodium stearate) | Krafft point (Kp) ([1]; listed as behenoyl-hydroxypropyltrimethylammonium chloride of Preparation I) [°C] | effective normality ratio range, quaternary ammonium salt to 1 of anionic surfactant ([2]; anionic surfactant: Sodium C15-C18 olefin sulphonate) | effective normality ratio range, quaternary ammonium salt to 1 of anionic surfactant ([2]; anionic surfactant: Sodium linear C10-C15 alkylbenzene sulphonate) | effective normality ratio range, quaternary ammonium salt to 1 of anionic surfactant ([2]; anionic surfactant: Sodium random secondary C13-C17 alkane sulphonate) | effective normality ratio range, quaternary ammonium salt to 1 of anionic surfactant ([2]; anionic surfactant: Sodium soap of tallow fatty acids)
4 | CCCCCCCCCCCCCCCCCC[N+](C)(C)C.[Cl-] [stearyltrimethylammonium chloride] | 11 °C |  |  | 1.4-1.8 | 1.5-3.0 | 1.3-2.0 | 1.1-1.6
